Columns and labels:
Format in all cases: in vivo
[1] = tested on: Tobacco Budworm [Heliothis virescens (Fabricius)] larvae; experiment: Tobacco budworm larvae, contact (TBW-C), 5 days; details: percent in solution, second-instar larvae
Description: The compounds in Tables 1 and 2 above were tested for insecticidal activity using the following testing procedures. LC50 values, based on the results of these tests and calculated according to dosage-mortality curves, are expressed in Table 3.
Tobacco Budworm [Heliothis virescens (Fabricius)]:
(a) Contact: Test compounds were diluted in a 50-50 acetone-water solution. Cotton (Gossypium sp.) cotyledons were immersed in the test solutions for 2-3 seconds and placed on a wire screen to dry. The dried leaves were placed in petri dishes containing a moistened piece of filter paper and infested with 5 second-instar tobacco budworm larvae. The dishes were placed in a high humidity chamber for 5 days, and percent mortality of the larvae recorded. Test concentrations ranged from 0.1% downward. The LC-50 values are expressed below in Table 3 under the heading "TBW-C" in terms of percent of the test compound in the solution.

[2] = tested on: Black Bean Aphid [Aphis fabae (Scop.)]; experiment: Black bean aphid spray test on nasturtium (BBA), 48 hours; details: percent of test compound in sprayed solution
Summary of the method: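 LC50, given as percent test compound in the sprayed liquid, was calculated from dosage-mortality curves using concentrations from 0.05% downward. Sprays in 50:50 acetone-water went to runoff on ~5 cm nasturtiums carrying 25-50 aphids of mixed ages, one day after infestation. Deaths were counted 48 h later under greenhouse conditions.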

[3] = tested on: Housefly [Musca domestica]; experiment: Housefly contact mortality in dishes (HF), 48 hours; details: μg of test compound per 25 female flies
Summary of the method: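 Dose range started at 100 μg per 25 female flies and went downward. Insects (1-2 days old) contacted a dried acetone/peanut-oil deposit in dishes; LC50 values come from dosage-mortality curves at 48 h.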

[4] = tested on: Cabbage Looper [Trichoplusia ni (Hubner)]; experiment: Cabbage looper leaf dip (CL), 3-5 days; details: percent in solution, second-instar larvae
Summary of the method: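 Compounds in 50-50 acetone-water were applied by dipping squash cotyledons (about 1×1.5 in) for 2-3 s; dried leaves went into petri dishes on moist filter paper with 5 second-instar larvae under high humidity. Mortality was scored after 3-5 days; LC50 from dosage-mortality curves, as percent compound in solution.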

[5] = tested on: Tobacco Budworm [Heliothis virescens (Fabricius)] eggs; experiment: Tobacco budworm eggs (TBW-E); details: percent in solution; 2-day old eggs
Summary of the method: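 Paper towel patches bearing 2-day old eggs were dipped in acetone solutions of compound, then set in petri dishes over larval rearing medium at 78° F. Mortality was scored once all control eggs had hatched and larvae were feeding. LC50, from dosage-mortality curves, is given as percent compound in solution.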

[6] = tested on: Maize weevil [Sitophilus zeamais (Motschulsky)]; experiment: Maize weevil on dipped corn seeds (MW), 48 hours; details: percent in solution, adult weevils
Summary of the method: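 LC50, given as percent of compound in dipping solution, comes from dosage-mortality curves over concentrations descending from 0.01%. Four corn seeds soaked 2-3 s in 50:50 acetone:water solution were dried and held with 10 adult weevils, about 25° C, mortality read after 48 h.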

[7] = tested on: Aster Leafhopper [Macrosteles fascifrens (Stal)]; experiment: Aster leafhopper on dipped oat seedlings (LH), 48 hours; details: percent in solution, adults/nymphs
Summary of the method: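 Three ~10 cm oat seedlings per cup were dipped 2-3 seconds in 50-50 acetone-water compound solutions, dried, and caged with ten adult/nymph leafhoppers. Mortality was counted after 48 hours at concentrations from 0.05% downward. LC50, as percent compound in solution, came from dosage-mortality curves.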

| Compound | LC50 TBW C (contact) [1] [%] | LC50 BBA [2] [%] | LC50 HF [3] [µg] | LC50 CL [4] [%] | LC50 TBW E (eggs) [5] [%] | LC50 MW [6] [%] | LC50 LH [7] [%] |
| --- | --- | --- | --- | --- | --- | --- | --- |
| ClC(Cl)C(=Nc1ccccc1)OCc1cccc(Oc2ccccc2)c1 [Compound 41] | 0.0035 | 0.001 | 4.5 | 0.015 | 0.04 | – | – |
| Fc1ccc(N=C(OCc2cccc(Oc3ccccc3)c2)C(Cl)Cl)cc1 [Compound 44] | < 0.1 | 0.0006 | 3 | – | 0.06 | – | – |
| Cc1c(F)cccc1N=C(OCc1cccc(Oc2ccccc2)c1)C(C)C [Compound 73] | 0.005 | 0.003 | 25 | 0.004 | 0.025 | – | – |
| Cc1ccc(F)cc1N=C(OCc1cccc(Oc2ccccc2)c1)C(C)C [Compound 74] | 0.0025 | 0.001 | 25 | 0.005 | 0.025 | – | – |
| COc1ccc(N=C(OCc2cccc(Oc3ccccc3)c2)C(C)C)cc1Cl [Compound 95] | 0.004 | 0.001 | 10 | 0.0025 | 0.025 | – | – |
| Cc1cc(Cl)ccc1N=C(OCc1cccc(Oc2ccccc2)c1)C(C)C [Compound 96] | 0.0025 | 0.002 | 35 | 0.003 | 0.025 | – | – |
| CC(C)(C)c1ccc(N=C(OCc2cccc(Oc3ccccc3)c2)C(Cl)Cl)cc1 [Compound 140] | > 0.1 | 0.05 | > 100 | < 0.1 | > 0.1 | – | – |
| COc1ccc(N=C(OCc2cccc(Oc3ccccc3)c2)C(C)C)c(OC)c1 [Compound 146] | 0.025 | 0.05 | 40 | 0.017 | > 0.1 | – | – |
| CC(=O)c1ccc(N=C(OCc2cccc(Oc3ccccc3)c2)C(C)C)cc1 [Compound 147] | 0.0075 | 0.03 | 10 | 0.01 | > 0.1 | – | – |
| CC(C)C(=Nc1cc(F)cc(F)c1)OCc1cccc(Oc2ccc(F)cc2)c1 [Compound 199] | 0.003 | – | 8 | 0.0006 | > 0.1 | > 0.01 | – |
| CC(C)(C)C(=Nc1ccc(F)c(Cl)c1)OCc1cccc(Oc2ccc(F)cc2)c1 [Compound 204] | 0.004 | – | > 100 | 0.0023 | > 0.1 | > 0.01 | – |
| CC(C)C(=Nc1cccc(C(F)(F)F)c1)OCc1ccc(F)c(Oc2ccc(Cl)cc2)c1 [Compound 266] | 0.0007 | > 0.05 | 10 | 0.00016 | 0.06 | – | – |
| CC(C)C(=Nc1ccc([N+](=O)[O-])cc1)OCc1coc(Cc2ccccc2)c1 [Compound 539] | – | > 0.05 | 22 | > 0.1 | > 0.1 | > 0.01 | > 0.05 |
| CC(C)C(=Nc1ccc2c(c1)OCO2)OCc1ccnc(Oc2ccccc2)c1 [Compound 540] | – | > 0.05 | > 100 | < 0.1 | > 0.1 | > 0.01 | > 0.05 |
| CC(C)C(=Nc1ccc(F)c(Cl)c1)OCc1cccc(Cc2ccccc2)c1 [Compound 541] | – | 0.004 | < 100 | 0.001 | > 0.1 | > 0.01 | > 0.05 |
| CC(C)C(=Nc1ccc(OC(F)(F)F)cc1)OCc1cccc(Cc2ccccc2)c1 [Compound 542] | – | > 0.05 | > 100 | > 0.01 | > 0.1 | > 0.01 | > 0.05 |
| CC(C)C(=Nc1ccc(C(F)(F)F)cc1)OCc1cccc(Cc2ccccc2)c1 [Compound 543] | – | 0.003 | < 100 | 0.0008 | > 0.1 | > 0.01 | < 0.05 |
| COCc1c(F)c(F)c(COC(=Nc2ccc(C(C)(C)C)cc2)C(C)C)c(F)c1F [Compound 544] | – | 0.005 | > 100 | > 0.1 | > 0.1 | > 0.01 | > 0.05 |
| Cc1cccc(N=C(OCc2cccc(Oc3ccc(Cl)cc3)n2)C(C)C)c1 [Compound 545] | – | 0.005 | < 100 | > 0.1 | > 0.1 | > 0.01 | > 0.05 |
| C#CCc1c(F)c(F)c(COC(=Nc2cccc(C(F)(F)F)c2)C(C)C)c(F)c1F [Compound 546] | – | 0.001 | < 100 | 0.0001 | > 0.1 | 0.0032 | < 0.05 |
| C#CCc1c(F)c(F)c(COC(=Nc2ccc3c(c2)OCO3)C(C)C)c(F)c1F [Compound 547] | – | 0.0006 | < 100 | 0.0005 | 0.05 | > 0.01 | < 0.05 |
| CC(C)C(=Nc1cccc(C(F)(F)F)c1)OCC#CCOc1ccccc1 [Compound 548] | – | > 0.05 | > 100 | < 0.1 | > 0.1 | > 0.01 | > 0.05 |
| CC(C)C(=Nc1ccc(F)c(Cl)c1)OCc1cccc(Oc2ccccn2)c1 [Compound 549] | – | > 0.05 | < 100 | > 0.1 | > 0.1 | > 0.01 | > 0.05 |

— US5045566A, “Novel imidate insecticides” (ICI Americas Inc., priority 1989, dated 1991)
